Source: ChEMBL document CHEMBL3352731, “Evaluation of gambierol and its analogs for their inhibition of human Kv1.2 and cytotoxicity” (Bioorg Med Chem Lett, 2015)

Columns and labels:
CHO [1] = assay: Cytotoxicity against wild-type CHO cells assessed as growth inhibition after 72 hrs by WST-8 assay; assay type: cell-based; settings: Cricetulus griseus
CHO [2] = assay: Cytotoxicity against CHO cells transfected with human Kv 1.2 assessed as growth inhibition after 72 hrs by WST-8 assay; assay type: cell-based; settings: Cricetulus griseus
[3] = biological target: Potassium voltage-gated channel subfamily A member 2 (Homo sapiens) (UniProt P16389); assay: Inhibition of human Kv 1.2 stably expressed in CHO cells by whole cell patch clamp method; assay type: cell-based
Chain of Potassium voltage-gated channel subfamily A member 2 (Homo sapiens) (P16389 whole entry): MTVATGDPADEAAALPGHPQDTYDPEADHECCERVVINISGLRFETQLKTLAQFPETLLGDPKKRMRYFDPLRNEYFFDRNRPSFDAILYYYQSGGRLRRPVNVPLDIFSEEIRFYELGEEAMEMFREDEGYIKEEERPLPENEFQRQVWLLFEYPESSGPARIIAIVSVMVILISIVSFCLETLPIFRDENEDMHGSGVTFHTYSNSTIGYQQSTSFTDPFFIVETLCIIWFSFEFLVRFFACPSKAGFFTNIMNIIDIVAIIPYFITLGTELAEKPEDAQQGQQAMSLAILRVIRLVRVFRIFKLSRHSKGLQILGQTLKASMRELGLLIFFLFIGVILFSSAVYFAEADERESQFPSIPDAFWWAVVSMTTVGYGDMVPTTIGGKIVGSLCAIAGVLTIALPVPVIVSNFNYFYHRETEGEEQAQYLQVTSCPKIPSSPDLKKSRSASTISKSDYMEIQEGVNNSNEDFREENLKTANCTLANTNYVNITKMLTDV

CHO [4] = assay: Induction of leak current in wild-type CHO cells by electrophysiology method; assay type: cell-based, Cricetulus griseus; settings: chinese hamster

| Structure (SMILES) | IC50 (CHO [1]) | IC50 (CHO [2]) | inhibition [3] | Activity (CHO [4]) |
| --- | --- | --- | --- | --- |
| C=CC/C=C\C=C/[C@H]1O[C@H]2C[C@H]3O[C@H]4CC[C@H]5O[C@H]6C[C@@]7(C)OCCC[C@@H]7O[C@@H]6C[C@@H]5O[C@]4(C)C[C@]3(C)O[C@@H]2C=C[C@]1(C)O | 6 µM | 6.5 µM | – | – |
| C=CC/C=C\C=C/[C@H]1O[C@H]2C[C@H]3O[C@H]4CCCCO[C@]4(C)C[C@]3(C)O[C@@H]2C=C[C@]1(C)O | > 100 µM | > 100 µM | – | – |
| C=CC/C=C\C=C/[C@H]1O[C@H]2C[C@H]3O[C@H]4CC[C@H]5O[C@H]6C[C@@]7(C)O[C@@]8(C)[C@@H](O)C[C@H](CCCO)O[C@@H]8C[C@@H]7O[C@@H]6C[C@@H]5O[C@]4(C)C[C@]3(C)O[C@@H]2C=C[C@]1(C)O | 78 µM | 95 µM | Dose-dependent effect | Dose-dependent effect |
